The values below come from BindingDB's records for doi:10.7270/Q25Q4TJ1 (Burnham Center For Chemical Genomics, 2010).

The target of the test is Intestinal-type alkaline phosphatase (Mus musculus, UniProt P24822). Kind of test: PubChem AID 488874.

A value given as a limit tells only on which side of the number the result lay.

Chain of Intestinal-type alkaline phosphatase (P24822 whole entry, looked up): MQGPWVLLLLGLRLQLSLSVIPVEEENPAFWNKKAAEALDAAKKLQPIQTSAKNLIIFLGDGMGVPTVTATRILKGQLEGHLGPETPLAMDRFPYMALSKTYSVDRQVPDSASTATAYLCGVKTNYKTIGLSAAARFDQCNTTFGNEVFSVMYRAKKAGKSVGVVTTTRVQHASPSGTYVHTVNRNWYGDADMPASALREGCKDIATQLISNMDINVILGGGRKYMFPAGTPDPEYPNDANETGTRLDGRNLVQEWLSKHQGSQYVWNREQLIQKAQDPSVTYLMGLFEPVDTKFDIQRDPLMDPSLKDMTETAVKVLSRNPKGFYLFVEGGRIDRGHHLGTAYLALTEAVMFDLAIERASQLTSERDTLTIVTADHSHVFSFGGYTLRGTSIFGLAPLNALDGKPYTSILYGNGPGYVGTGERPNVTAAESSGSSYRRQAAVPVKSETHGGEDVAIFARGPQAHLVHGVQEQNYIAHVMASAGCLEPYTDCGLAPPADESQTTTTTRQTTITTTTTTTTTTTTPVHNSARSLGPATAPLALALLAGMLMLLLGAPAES

A word on the IC50: it is the midpoint of a concentration-inhibition curve. Take `O=C(Nn1c(O)csc1=S)C(=O)Nn1c(O)csc1=S` [SMR000349781]: the IC50 stood at 3.84 µM.

Compound `O=Nc1[nH]c(=O)c(CC(=O)c2ccccc2)nc1NO` [SMR000539633] had an IC50 of 35.5 µM.

In turn, `O=c1c2ccccc2nc(N=NCc2c(O)ccc3ccccc23)n1O` [SMR000145705] displayed an IC50 of 75.3 µM.

`Cc1c(C(=O)NN=Cc2ccc(O)cc2O)[nH][nH]c1=O` came in with an IC50 of more than 100 µM.

In the case of `O=C(O)[C@H]1O[C@@H](Oc2c(-c3ccc(O)c(O)c3)oc3cc(O)cc(=O)c-3c2O)[C@H](O)[C@@H](O)[C@@H]1O` [quercetin glucuronide], the IC50 was found to be 3.29 µM.

Compound `CC(N=Nc1ccccc1[N+](=O)[O-])c1ccc([N+](=O)[O-])cc1` (stereo not given) displayed an IC50 of more than 100 µM.

Turning to `Cc1cc(Br)ccc1SCC(=O)OCC(=O)C(C#N)c1nc2ccccc2[nH]1` (stereo not given) [2-[(4-bromo-2-methylphenyl)thio]acetic acid [3-cyano-3-(1,3-dihydrobenzimidazol-2-ylidene)-2-oxopropyl] ester], the IC50 is more than 100 µM.

Compound `CCOC1=CC(=Cc2c(C)[nH]oc2=O)C=C(Br)C1=O` [4-[(Z)-(3-bromo-5-ethoxy-4-oxo-1-cyclohexa-2,5-dienylidene)methyl]-3-methyl-2H-isoxazol-5-one] gave a 50% inhibitory concentration (IC50) of 33.1 µM. That is a double-digit micromolar value.

In turn, `CCOC(=O)c1c(C)[nH]c(C(=O)N/N=C/C2C=C([N+](=O)[O-])C=CC2=O)c1C` (stereo not given) [ethyl 2,4-dimethyl-5-[[[(E)-(3-nitro-6-oxocyclohexa-2,4-dien-1-ylidene)methyl]amino]carbamoyl]-1H-pyrrole-3-carboxylate] yielded an IC50 of more than 100 µM.

Compound `C=c1[nH]n(Cc2ccccc2)c(=O)c1=Cc1ccc(N(C)C)cc1` [(4Z)-4-[[4-(dimethylamino)phenyl]methylidene]-5-methyl-2-(phenylmethyl)-3-pyrazolone] registered an IC50 of 35.1 µM.
